Reference: publication PMC4589238, “Acute Biphasic Effects of Ayahuasca” (PLoS ONE, 2015)
Like-named read-outs stand apart in the source and are kept apart here.

Key:
[1] = Plasma concentrations of ayahuasca compounds and metabolites after oral ayahuasca (LC/MS/MS); assay type: in vivo, human; design: AUC (mean ± sd): unit not given here; settings: for Detection in plasma samples: any plasma sample after oral ayahuasca; for Cmax / Tmax: both sexes, human, in vivo; for Cmax: po
Excerpt: A sample of six liters of "Hoasca" was donated by the União do Vegetal (UDV) church in Brazil for the specific purpose of use in this study. Quantification of the main compounds in the brew was done with liquid chromatography-electrospray ionization-tandem mass spectrometry (LC/MS/MS). The screening included the following compounds: DMT, DMT‐N‐oxide (DMT-NO), N‐methyltryptamine (NMT), indoleacetic acid (IAA), 5‐hydroxy‐DMT (5-OH-DMT, or bufotenin), 5‐methoxy‐DMT (5-MeO-DMT), Harmine, Harmol, Harmaline, Harmalol, THH, 7‐hydroxy‐tetrahydroharmine (THH-OH), and 2‐methyl‐tetrahydro‐beta‐carboline (2-MTHBC). The original liquid volume was then reduced to 50% using a rotary evaporator to decrease the amount of liquid intake.
Blood was collected in sterile EDTA containing tubes. Ten blood samples (3 mL each) were collected every 25 minutes, starting 25 minutes before ayahuasca ingestion and ending 200 minutes after ingestion (in a total of ten samples for each individual). Blood was collected by a professional nurse, with a catheter that remained in place during the entire time of the study. Each tube was carefully and slowly turned upside-down three times and then stored at 0°C until all ten samples were collected. Blood samples were then centrifuged at 2000 rpm for 10 min at 4°C and the resulting plasma immediately collected and frozen at -80°C. The frozen plasma samples were stored at -80°C until shipped on dry ice to USA for analysis according to [31]. Compounds included in this screening were DMT, DMT-NO, NMT, IAA, 5-OH-DMT (bufotenin), 5-MeO-DMT, Harmine, Harmol, Harmaline, Harmalol, THH, THH-OH and 2-MTHBC.
Two volunteers opted out of blood collection, and data from one volunteer was discarded due to high hemolysis in the blood samples. Therefore data were available from 16 volunteers. Maximum plasma Concentration (Cmax), Time for maximum plasma concentration (Tmax) and area under the curve (AUC) of ten identified compounds are summarized in Table 2. […] No significant differences were found between men and women for any of the identified compounds in blood. […] There were no significant correlations between time to vomit and Cmax or AUC.

[2] = test system: healthy volunteers; experiment: Association between plasma concentration and EEG spectral changes (generalized linear models); assay type: in vivo, human; settings: for Clusters between plasma concentration and EEG spectra: delta, theta and beta frequency bands; for Cohen's d, plasma concentration vs alpha band: left frontal electrodes
Experimental: Relationships between plasma concentration of identified compounds and spectral changes in the six frequency bands evaluated were calculated by fitting generalized linear models (glmfit function in MATLAB) for each compound and frequency band. This analysis was followed by the non-parametric cluster based correction with 5000 permutations.
Results were considered statistically significant when p <0.05. Effect sizes are also reported, using Partial eta squared (partial η^2) for the main frequency clusters and Cohen’s d for the generalized linear models.

[3] = test system: human subjects; settings: cited from earlier work
[4] = test system: MAO-A; design: method as in PMID 19879939; settings: cited from earlier work
[5] = test system: 5HT-2A receptors; settings: cited from earlier work
[6] = left centro-parieto-occipital electrodes
[7] = left fronto-central electrodes (F7 and FC5)
[8] = left fronto-temporal electrodes
[9] = plasma, 16 volunteers, oral ayahuasca, sampling to 200 min, read-out: Cmax (mean ± sd)
[10] = plasma, 16 volunteers, oral ayahuasca, read-out: Cmax (min—max)
[11] = from ayahuasca ingestion, group average curve, read-out: Time of peak plasma level in the group average (converted)
[12] = plasma, 16 volunteers, oral ayahuasca, read-out: Tmax (mean ± sd) (converted)
[13] = plasma, 16 volunteers, oral ayahuasca
[14] = bilateral parieto-occipital electrodes
[15] = plasma, 16 volunteers, oral ayahuasca, sampling to 200 min
[16] = left parieto-occipital electrodes
[17] = one large widespread bilateral cluster
[18] = one right central electrode (C6)

Structure (SMILES): CN1CCc2c([nH]c3ccccc23)C1 [2-MTHBC, 2‐methyl‐tetrahydro‐beta‐carboline]
- Detection in plasma samples [1]: never detected

Structure (SMILES): COc1ccc2[nH]cc(CCN(C)C)c2c1 [5-MeO-DMT, 5‐methoxy‐DMT]
- Detection in plasma samples [1]: never detected

Structure (SMILES): CN(C)CCc1c[nH]c2ccc(O)cc12 [5-OH-DMT, 5‐hydroxy‐DMT]
- Detection in plasma samples [1]: never detected

Structure (SMILES): CN(C)CCc1c[nH]c2ccccc12 [DMT, N,N-dimethyltryptamine]
- Cohen's d, plasma concentration vs fast-gamma power increase ([2]; bilateral temporo-parieto-occipital electrodes): 0.0309
- Cohen's d, plasma concentration vs alpha band power decrease [2, 6]: 0.0822
- Cohen's d, plasma concentration vs slow-gamma power increase [2, 6]: 0.0125
- Cohen's d, plasma concentration vs beta power increase [2, 7]: 0.1131
- Cohen's d, plasma concentration vs fast-gamma power increase [2, 8]: 0.0193
- Cohen's d, plasma concentration vs slow-gamma power increase [2, 8]: 0.0966
- Cohen's d, plasma concentration vs delta band increase ([2]; left fronto-temporal electrodes (FT9, F7 and FT7)): 0.2962
- Cohen's d, plasma concentration vs fast-gamma power increase ([2]; right frontal electrodes): 0.1366
- Cohen's d, plasma concentration vs slow-gamma power increase ([2]; right frontal electrodes): 0.0161
- Cohen's d, plasma concentration vs delta band increase ([2]; right frontal electrodes (AF4 and F2)): 0.2100
- Cmax [1, 9]: 25.4 ± 16.8 ng/mL
- Cmax [1, 10]: 2.49 to 65.9 ng/mL
- Tmax [1, 11]: 1.25 h
- Tmax [1, 12]: 2.21 h
- AUC (min—max) [1, 13]: 9.52 to 219.10 g·min/mL

Structure (SMILES): C[N+](C)([O-])CCc1c[nH]c2ccccc12 [DMT-NO, DMT‐N‐oxide]
- Clusters between plasma concentration and beta band [2]: No significant clusters
- Cohen's d, plasma concentration vs fast-gamma power increase [2, 14]: 0.0003
- Clusters between plasma concentration and delta band [2]: not significant
- Cohen's d, plasma concentration vs fast-gamma power increase ([2]; left centro-frontal electrodes): 0.1917
- Cohen's d, plasma concentration vs slow-gamma power increase ([2]; left centro-parieto-occipital extending to right parietal electrodes): 0.0593
- Cohen's d, plasma concentration vs alpha band power decrease ([2]; left centro-parieto-occipital extending to some left frontal electrodes): 0.0610
- Cohen's d, plasma concentration vs slow-gamma power increase ([2]; right centro-temporal electrodes (C6, T8 and TP8)): 0.0052
- Cohen's d, plasma concentration vs fast-gamma power increase ([2]; right centro-temporo-frontal electrodes): 0.0269
- Cohen's d, plasma concentration vs slow-gamma power increase ([2]; right frontal electrodes): 0.0061
- Cohen's d, plasma concentration vs alpha band power decrease ([2]; right fronto-temporal electrodes (FC6, FT8 and FT10)): 0.1341
- AUC (mean ± sd) [1, 13]: 60.37 ± 57.60
- AUC (min—max) [1, 13]: 5.21 to 191.29 g·min/mL
- Cmax (min—max) [1, 13]: 1.58 to 40.60 ng/mL
- Tmax (mean ± sd) [1, 13]: 1.849 ± 0.6267 h
- Cmax (mean ± sd) [1, 15]: 14.42 ± 12.50 ng/mL

Structure (SMILES): CC1=NCCc2c1[nH]c1cc(O)ccc21 [Harmalol]
- Clusters between plasma concentration and EEG spectra [2]: did not show any significant clusters
- Cohen's d, plasma concentration vs alpha band power decrease ([2]; left centro-parietal electrodes): 0.0673
- Cohen's d, plasma concentration vs slow-gamma power increase [2, 7]: 0.0707
- Cohen's d, plasma concentration vs fast-gamma power increase [2, 8]: 0.1479
- Cohen's d, plasma concentration vs alpha band power decrease [2, 16]: 0.1056
- Cohen's d, plasma concentration vs slow-gamma power increase [2, 16]: 0.0542
- Cohen's d, plasma concentration vs fast-gamma power increase ([2]; right frontal electrodes): 0.0785
- Cohen's d, plasma concentration vs slow-gamma power increase ([2]; right frontal electrodes): 0.001
- Cmax [1, 9]: 17.2 ± 13.6 ng/mL
- Cmax [1, 10]: 3.11 to 48.5 ng/mL
- Tmax [1, 12]: 2.08 h
- AUC (min—max) [1, 13]: 9.91 to 204.99 g·min/mL

Structure (SMILES): COc1ccc2c(c1)[nH]c1c(C)nccc12 [Harmine]
- Effects in humans ([3]; 120 mg orally): barely-perceptible sedative effects
- Effects in humans ([3]; 10 to 20 mg/kg i.m.): effects qualitatively similar to LSD or mescaline
- Psychoactive dose ([3]; i.v.): ≥ 200 mg
- Potency at inhibiting MAO-A relative to MAO-B [4]: 10,000 fold
- Clusters between plasma concentration and EEG spectra [2]: did not show any significant clusters
- Cohen's d, plasma concentration vs slow-gamma power increase ([2]; left centro-frontal electrodes (F7, FC5, C5 and C3)): 0.2028
- Cohen's d, plasma concentration vs alpha band power decrease [2, 6]: 0.0297
- Cohen's d, plasma concentration vs slow-gamma power increase [2, 16]: 0.1797
- Cohen's d, plasma concentration vs fast-gamma power increase [2, 17]: 0.0312
- Cohen's d, plasma concentration vs slow-gamma power increase ([2]; right frontal electrodes): 0.0024
- Cohen's d, plasma concentration vs slow-gamma power increase ([2]; right parietal electrodes): 0.1208
- Cmax [1, 9]: 110 ± 138 ng/mL
- Tmax [1, 11]: 0.833 h
- Tmax [1, 12]: 2.5 h
- AUC (min—max) [1, 13]: 21.37 to 2325.28 g·min/mL
- Affinity for 5HT-2A receptors [5]: moderate affinity

Structure (SMILES): Cc1[nH]ccc2c1[nH]c1cc(=O)ccc12 [Harmol]
- Clusters between plasma concentration and EEG spectra [2]: did not show any significant clusters
- Cohen's d, plasma concentration vs alpha band power decrease [2, 6]: 0.0556
- Cohen's d, plasma concentration vs alpha band [2]: 0.3029
- Cohen's d, plasma concentration vs slow-gamma power increase [2, 7]: 0.1250
- Cohen's d, plasma concentration vs slow-gamma power increase [2, 16]: 0.2921
- Cohen's d, plasma concentration vs fast-gamma power increase [2, 17]: 0.0463
- Cohen's d, plasma concentration vs slow-gamma power increase ([2]; right frontal electrodes): 0.2747
- Cohen's d, plasma concentration vs slow-gamma power increase ([2]; right parietal electrodes): 0.0941
- Cmax [1, 9]: 85 ± 93.6 ng/mL
- Cmax [1, 10]: < 319 ng/mL
- Tmax [1, 12]: 2.47 h
- AUC (min—max) [1, 13]: 0.00 to 1550.35 g·min/mL

Structure (SMILES): O=C(O)Cc1c[nH]c2ccccc12 [IAA, indoleacetic acid]
- Clusters between plasma concentration and beta band [2]: No significant clusters
- Clusters between plasma concentration and delta band [2]: not significant
- Cohen's d, plasma concentration vs alpha band [2]: 0.2888
- Cohen's d, plasma concentration vs slow-gamma ([2]; right centro-frontal electrodes (F2, FCz, FC2, FC4)): 0.0052
- Cohen's d, plasma concentration vs fast-gamma power increase ([2]; right frontal electrodes): 0.0737
- Cohen's d, plasma concentration vs fast-gamma ([2]; right parietal electrodes (CP2, Pz, P2, P4)): 0.1428
- AUC (min—max) [1, 13]: 1237.81 to 7726.25 g·min/mL
- Cmax (min—max) [1, 13]: 61.35 to 1674.57 ng/mL
- Tmax (mean ± sd) [1, 13]: 2.9167 ± 0.6632 h
- Cmax (mean ± sd) [1, 15]: 717.72 ± 454.50 ng/mL

Structure (SMILES): CNCCc1c[nH]c2ccccc12 [NMT, N‐methyltryptamine]
- Clusters between plasma concentration and alpha band [2]: No significant clusters
- Cohen's d, plasma concentration vs slow-gamma power increase ([2]; bilateral frontal electrodes): 0.0822
- Cohen's d, plasma concentration vs fast-gamma power increase ([2]; bilateral fronto-central electrodes): 0.0290
- Cohen's d, plasma concentration vs fast-gamma power increase [2, 14]: 0.0911
- Clusters between plasma concentration and delta band [2]: not significant
- Cohen's d, plasma concentration vs beta power increase ([2]; left frontal electrodes (F7, AF7, AF3, AFz)): 0.0863
- Cohen's d, plasma concentration vs slow-gamma power increase ([2]; occipital electrodes (O1, Oz and O2)): 0.2579
- Cohen's d, plasma concentration vs slow-gamma power increase ([2]; right parietal electrodes): 0.1538
- Cmax [1, 9]: 3.1 ± 2.12 ng/mL
- Cmax [1, 10]: 0.57 to 7.56 ng/mL
- Tmax [1, 12]: 2.03 h
- AUC (min—max) [1, 13]: 1.52 to 21.69 g·min/mL

Structure (SMILES): CC1NCCc2c1[nH]c1cc(O)ccc21 (centres unmarked) [THH-OH, 7‐hydroxy‐tetrahydroharmine]
- Clusters between plasma concentration and alpha band [2]: No significant clusters
- Cohen's d, plasma concentration vs delta band power increase ([2]; one left frontal electrode (F7)): 0.2644
- Cohen's d, plasma concentration vs delta band power increase [2, 18]: 0.0269
- Cohen's d, plasma concentration vs theta band power increase [2, 18]: 0.2630
- Clusters between plasma concentration and slow-gamma frequency band ([2]; slow-gamma band): No significant clusters
- AUC (min—max) [1, 13]: 0.00 to 284.32 g·min/mL
- Cmax (min—max) [1, 13]: 0.00 to 111.01 ng/mL
- Tmax (mean ± sd) [1, 13]: 1.994 ± 0.8978 h
- Cmax (mean ± sd) [1, 15]: 22.58 ± 26.76 ng/mL
